12 compounds from ChEMBL document CHEMBL5223116, “Combination of NSAIDs with donepezil as multi-target directed ligands for the treatment of Alzheimer's disease” (Bioorg Med Chem Lett, 2022) can be followed below.

What is called IC50 is the concentration at which inhibition is half-maximal.

For series [1], the target named is T1, Cholinesterase (Homo sapiens, UniProt P06276). Put plainly: Inhibition of BChE (unknown origin) by Ellman's method. For orientation: Ellman's reagent forms a yellow product with free thiols.
In series [2] the target is T2, Acetylcholinesterase (Homo sapiens, UniProt P22303). Briefly: Inhibition of AChE (unknown origin) by Ellman's method.
The target in series [3] is T1, Cholinesterase. Briefly: Inhibition of BChE (unknown origin) at 10 uM by Ellman's method.
In series [4] the target is T2, Acetylcholinesterase. Briefly: Inhibition of AChE (unknown origin) at 10 uM by Ellman's method.
The test system of series [5] is BV-2. Briefly: Antiinflammatory activity in mouse BV-2 cells assessed as decrease in LPS-induced IL-1beta secretion at 5 uM preincubated for 6 hrs followed by LPS stimulation and measured after 24 hrs by qRT-PCR analysis (reference value: 3.76). The series is classed as functional. The following applies: time 30 hrs. In general terms: Quantitative PCR measures a nucleic acid by following its amplification.

For series [6], the target named is T1, Cholinesterase. Briefly: Potency index, ratio of donepezil IC50 to test compound IC50 for BChE (unknown origin).
The test system of series [7] is PC-3. Briefly: Cytotoxicity against […] cells assessed as reduction in cell viability at 0.1 to 10 uM by MTT assay. The series is classed as toxicity, cell-based. The following applies: dose 0.1-10 µM. For orientation: Formazan colour is commonly taken as a measure of viable cells.
A short description of series [8]: Stability of compound in PBS at pH 7.4 measured after 48 hrs by HPLC analysis. In kind it is physicochemical. Particulars: buffer, pH 7.4, 48 h.
The subject of series [9] is PC-3. Briefly: Neuroprotective activity against Abeta42-induced cell death in […] cells by MTT assay. In kind it is functional, cell-based. The following applies: dose 0.1-10 µM.
For series [10], the target named is Prostaglandin G/H synthase 1 (Homo sapiens) (UniProt P23219). Put plainly: Inhibition of COX-1 (unknown origin) by enzyme immunoassay.
Series [11] concerns BV-2. Briefly: Antiinflammatory activity in mouse BV-2 cells assessed as decrease in LPS-induced IL-1beta secretion at 10 uM preincubated for 6 hrs followed by LPS stimulation and measured after 24 hrs by qRT-PCR analysis (reference value: 3.76). The series is classed as functional. The following applies: time 30 hrs.
For series [12], the system named is BV-2. Briefly: Antiinflammatory activity in mouse BV-2 cells assessed as decrease in LPS-induced TNFalpha secretion at 5 uM preincubated for 6 hrs followed by LPS stimulation and measured after 24 hrs by qRT-PCR analysis (reference value: 3.91). In kind it is functional. Particulars: time 30 hrs.
In series [13] the target is T3, Prostaglandin G/H synthase 2 (Homo sapiens) (UniProt P35354).
T3 sequence (whole entry): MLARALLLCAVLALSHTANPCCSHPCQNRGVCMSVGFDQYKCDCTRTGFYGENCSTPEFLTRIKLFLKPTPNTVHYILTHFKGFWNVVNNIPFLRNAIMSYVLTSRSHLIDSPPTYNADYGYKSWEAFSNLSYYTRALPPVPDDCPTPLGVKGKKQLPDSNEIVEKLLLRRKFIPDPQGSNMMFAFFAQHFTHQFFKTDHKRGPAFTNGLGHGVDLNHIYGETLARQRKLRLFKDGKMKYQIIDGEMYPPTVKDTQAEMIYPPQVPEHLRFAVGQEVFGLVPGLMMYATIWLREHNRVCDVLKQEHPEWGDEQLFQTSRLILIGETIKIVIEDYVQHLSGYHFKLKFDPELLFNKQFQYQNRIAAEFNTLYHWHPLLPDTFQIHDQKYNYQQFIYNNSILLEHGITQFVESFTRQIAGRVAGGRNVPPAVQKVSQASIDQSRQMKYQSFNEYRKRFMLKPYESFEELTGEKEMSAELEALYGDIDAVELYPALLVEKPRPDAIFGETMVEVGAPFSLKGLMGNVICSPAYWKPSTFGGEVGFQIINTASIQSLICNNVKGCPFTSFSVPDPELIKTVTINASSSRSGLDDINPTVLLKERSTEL
Briefly: Inhibition of COX-2 (unknown origin) by enzyme immunoassay.

In series [14] the test system is BV-2. Briefly: Antiinflammatory activity in mouse BV-2 cells assessed as decrease in LPS-induced TNFalpha secretion at 10 uM preincubated for 6 hrs followed by LPS stimulation and measured after 24 hrs by qRT-PCR analysis (reference value: 3.91). Particulars: time 30 hrs. In kind it is functional.

The source made the active and inactive calls. The calls are words filed in the database; no cut-off is given here.

T1 sequence (P06276 whole entry): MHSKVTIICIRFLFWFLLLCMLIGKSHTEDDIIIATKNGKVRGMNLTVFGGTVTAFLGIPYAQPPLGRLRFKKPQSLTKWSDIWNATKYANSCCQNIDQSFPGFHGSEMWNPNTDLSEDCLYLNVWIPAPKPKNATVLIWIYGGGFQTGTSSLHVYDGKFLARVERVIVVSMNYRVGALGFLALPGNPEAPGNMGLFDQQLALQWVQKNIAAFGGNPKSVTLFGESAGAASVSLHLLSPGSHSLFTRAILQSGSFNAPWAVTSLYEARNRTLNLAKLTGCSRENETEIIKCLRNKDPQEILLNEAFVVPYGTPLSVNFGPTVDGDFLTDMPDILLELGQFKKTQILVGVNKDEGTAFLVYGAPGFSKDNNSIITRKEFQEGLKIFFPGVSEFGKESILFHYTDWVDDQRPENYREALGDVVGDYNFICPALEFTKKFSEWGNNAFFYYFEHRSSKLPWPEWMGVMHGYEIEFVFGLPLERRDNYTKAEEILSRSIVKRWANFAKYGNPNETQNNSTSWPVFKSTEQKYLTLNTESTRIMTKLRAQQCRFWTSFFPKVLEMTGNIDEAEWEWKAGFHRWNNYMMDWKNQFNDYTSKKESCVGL
T2 sequence (P22303 whole entry): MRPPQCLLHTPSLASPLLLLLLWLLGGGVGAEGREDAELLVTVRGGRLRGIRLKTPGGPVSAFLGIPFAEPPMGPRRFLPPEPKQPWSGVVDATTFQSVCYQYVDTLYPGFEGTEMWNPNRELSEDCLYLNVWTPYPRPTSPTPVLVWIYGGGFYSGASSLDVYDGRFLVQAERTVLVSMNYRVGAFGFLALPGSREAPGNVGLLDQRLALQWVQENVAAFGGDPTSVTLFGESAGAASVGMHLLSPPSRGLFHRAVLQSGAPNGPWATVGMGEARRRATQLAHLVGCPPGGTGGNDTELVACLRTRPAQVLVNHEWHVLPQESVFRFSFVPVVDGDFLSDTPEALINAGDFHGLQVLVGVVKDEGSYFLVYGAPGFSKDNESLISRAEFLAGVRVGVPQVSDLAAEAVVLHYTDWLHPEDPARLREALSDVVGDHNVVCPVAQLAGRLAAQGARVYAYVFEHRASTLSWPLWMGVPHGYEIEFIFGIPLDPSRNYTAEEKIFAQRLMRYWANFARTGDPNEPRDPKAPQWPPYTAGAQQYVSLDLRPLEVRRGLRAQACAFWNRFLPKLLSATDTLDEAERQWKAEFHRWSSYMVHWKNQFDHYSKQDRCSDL
Prostaglandin G/H synthase 1 (Homo sapiens), sequence (P23219 whole entry): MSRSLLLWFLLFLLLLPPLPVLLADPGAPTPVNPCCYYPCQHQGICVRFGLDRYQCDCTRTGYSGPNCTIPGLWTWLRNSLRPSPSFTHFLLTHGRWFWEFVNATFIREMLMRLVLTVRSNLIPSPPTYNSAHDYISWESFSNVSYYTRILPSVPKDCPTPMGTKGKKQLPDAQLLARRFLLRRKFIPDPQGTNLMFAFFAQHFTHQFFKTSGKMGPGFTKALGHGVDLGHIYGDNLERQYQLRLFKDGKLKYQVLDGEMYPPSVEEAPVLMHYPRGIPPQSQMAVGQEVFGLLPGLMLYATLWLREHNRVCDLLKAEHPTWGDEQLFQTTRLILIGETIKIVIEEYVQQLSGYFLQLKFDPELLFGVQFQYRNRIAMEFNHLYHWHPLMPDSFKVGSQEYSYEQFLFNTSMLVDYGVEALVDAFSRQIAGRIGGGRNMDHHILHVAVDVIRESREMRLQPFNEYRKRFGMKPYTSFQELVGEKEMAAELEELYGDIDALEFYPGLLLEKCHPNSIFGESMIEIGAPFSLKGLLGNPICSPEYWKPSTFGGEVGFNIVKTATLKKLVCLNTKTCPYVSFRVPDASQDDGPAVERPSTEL

`COc1ccc2c(c1)c(CC(=O)N/N=C1\c3cc(OC)c(OC)cc3CC1CC1CCN(Cc3ccccc3)CC1)c(C)n2C(=O)c1ccc(Cl)cc1` (centres undefined): the IC50 at Cholinesterase [1] is 8530 nM; against Acetylcholinesterase [2], 510 nM.
Take `CC(=O)Oc1ccccc1C(=O)O`: the inhibition entry on Cholinesterase [3] and on Acetylcholinesterase [4] was “inactive” in each case.
Consider `COc1cc2c(cc1OC)/C(=N\NC(=O)C(CC(C)C)NC(=O)C(C)c1ccc(CC(C)C)cc1)C(CC1CCN(Cc3ccccc3)CC1)C2` (centres undefined), for which the IC50 on Cholinesterase [1] is 20200 nM; on Acetylcholinesterase [2] it was 350 nM.
`COc1cc2c(cc1OC)/C(=N\NC(=O)C(NC(=O)C(C)c1ccc(CC(C)C)cc1)C(C)C)C(CC1CCN(Cc3ccccc3)CC1)C2` (centres undefined): the values for the IC50 against Cholinesterase [1] and against Acetylcholinesterase [2] were 3230 nM and 400 nM, respectively.
For `COc1ccc2cc([C@H](C)C(=O)N/N=C3\c4cc(OC)c(OC)cc4CC3CC3CCN(Cc4ccccc4)CC3)ccc2c1` (some centres undefined) the same measures were 880 nM and 150 nM.
For `COc1cc2c(cc1OC)/C(=N\NC(=O)C(C)c1ccc(CC(C)C)cc1)C(CC1CCN(Cc3ccccc3)CC1)C2` (centres undefined), the Activity is 1.19 with BV-2 [5]; “Non-Toxic” in the series on PC-3 [7]; “Dose-Dependent Effect” in the series on PC-3 [9]; 0.78 in the series on BV-2 [11]; 1.51 in the series with BV-2 [12]; 1.12 in the series with BV-2 [14]. Besides, the Ratio IC50 at Cholinesterase [6] was 5. Moreover, the Stability result in series [8] is “Stable”. Further, the inhibition entry in series [10] and in [13] was “Dose-Dependent Effect” each time. For the same compound, the IC50 stood at 800 nM against Cholinesterase [1] and 15 nM against Acetylcholinesterase [2].
Regarding `COc1cc2c(cc1OC)/C(=N\NC(=O)c1ccccc1OC(C)=O)C(CC1CCN(Cc3ccccc3)CC1)C2` (centres undefined), the values for the IC50 against Cholinesterase [1] and on Acetylcholinesterase [2] were 800 nM and 46 nM, respectively.
Turning to `COc1ccc2c(c1)c(CC(=O)O)c(C)n2C(=O)c1ccc(Cl)cc1`, the inhibition result on Cholinesterase [3] and at Acetylcholinesterase [4] was “inactive” throughout.
In the case of `CC(C)Cc1ccc(C(C)C(=O)O)cc1` (centres undefined), the inhibition entry on Cholinesterase [3] and on Acetylcholinesterase [4] was “inactive” in each case.
Turning to `COc1cc2c(cc1OC)/C(=N\NC(=O)CCNC(=O)C(C)c1ccc(CC(C)C)cc1)C(CC1CCN(Cc3ccccc3)CC1)C2` (centres undefined), the results for the IC50 on Cholinesterase [1] and on Acetylcholinesterase [2] were 11600 nM and 4850 nM, respectively.
In the case of `COc1cc2c(cc1OC)/C(=N\NC(=O)CNC(=O)C(C)c1ccc(CC(C)C)cc1)C(CC1CCN(Cc3ccccc3)CC1)C2` (centres undefined), the IC50 was 1640 nM against Cholinesterase [1] and 1190 nM against Acetylcholinesterase [2].
For `COc1cc2c(cc1OC)/C(=N\N)C(CC1CCN(Cc3ccccc3)CC1)C2` (centres undefined), the IC50 was determined as 2540 nM at Cholinesterase [1] and 190 nM against Acetylcholinesterase [2].
